These compounds were tested against human GLP-1 receptor (Homo sapiens (Human), UniProt P43220). Conditions: read-out: Mean EC50; cAMP, HTRF detection, 30 min at 37° C., HEK-293 cells expressing cloned human GLP-1 receptor.
Chain of human GLP-1 receptor (P43220 24-463): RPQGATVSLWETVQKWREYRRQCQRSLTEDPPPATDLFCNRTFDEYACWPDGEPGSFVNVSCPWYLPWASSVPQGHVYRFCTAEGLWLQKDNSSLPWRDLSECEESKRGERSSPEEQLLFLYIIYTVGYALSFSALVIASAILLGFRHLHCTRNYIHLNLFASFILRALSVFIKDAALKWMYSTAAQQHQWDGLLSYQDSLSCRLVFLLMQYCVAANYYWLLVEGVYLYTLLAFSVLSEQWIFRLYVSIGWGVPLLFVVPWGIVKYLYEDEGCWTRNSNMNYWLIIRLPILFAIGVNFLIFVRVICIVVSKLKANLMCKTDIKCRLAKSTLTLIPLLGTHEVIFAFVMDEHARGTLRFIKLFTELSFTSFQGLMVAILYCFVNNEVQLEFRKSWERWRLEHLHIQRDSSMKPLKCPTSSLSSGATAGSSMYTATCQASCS
`CC[C@@H](c1ccccc1)N1Cc2cc3c(cc2C[C@H]1C(=O)N[C@@H](Cc1ccc(-c2ccnc(CF)c2)cc1)C(=O)O)OC[C@H](c1ccc(OCc2ccc(Cl)c(Cl)c2)cc1)O3` [Example 212, (S)-2-{[(3S,8S)-3-[4-(3,4-Dichloro-benzyloxy)-phenyl]-7-((S)-1-phenyl-propyl)-2,3,6,7,8,9-hexahydro-[1,4]dioxino[2,3-g]isoquinoline-8-carbonyl]-amino}-3-[4-(2-fluoromethyl-pyridin-4-yl)-phenyl]-propionic acid] was tested, and the EC50 was 34 nM. `Cc1nc(C(=O)N2Cc3cc4c(cc3C[C@H]2C(=O)N[C@@H](Cc2ccc(-c3ccnc(C)c3C)cc2)C(=O)O)OC[C@H](c2ccc(OCc3ccc(Cl)c(Cl)c3)cc2)O4)c(C)o1` [Example 216, (S)-2-{[(3S,8S)-3-[4-(3,4-Dichloro-benzyloxy)-phenyl]-7-(2,5-dimethyl-oxazole-4-carbonyl)-2,3,6,7,8,9-hexahydro-[1,4]dioxino[2,3-g]isoquinoline-8-carbonyl]-amino}-3-[4-(2,3-dimethyl-pyridin-4-yl)-phenyl]-propionic acid] showed an EC50 of 17 nM. `Cc1nc(C(=O)N2Cc3cc4c(cc3C[C@H]2C(=O)N[C@@H](Cc2ccc(-c3ccnc(C)c3C)cc2)C(=O)O)OC[C@H](c2ccc(OCc3ccc(C)c(C)c3)cc2)O4)c(C)o1` [Example 217, (S)-2-{[(3S,8S)-3-[4-(3,4-Dimethyl-benzyloxy)-phenyl]-7-(2,5-dimethyl-oxazole-4-carbonyl)-2,3,6,7,8,9-hexahydro-[1,4]dioxino[2,3-g]isoquinoline-8-carbonyl]-amino}-3-[4-(2,3-dimethyl-pyridin-4-yl)-phenyl]-propionic acid] showed an EC50 of 24 nM. For `Cc1nc(C(=O)N2Cc3cc4c(cc3C[C@H]2C(=O)N[C@@H](Cc2ccc(-c3ccnc(C)c3C)cc2)C(=O)O)OC[C@H](c2ccc(OC[C@H]3CC[C@H](C)CC3)cc2)O4)c(C)o1` [Example 222, (S)-2-({(3S,8S)-7-(2,5-Dimethyl-oxazole-4-carbonyl)-3-[4-(trans-4-methyl-cyclohexyl-methoxy)-phenyl]-2,3,6,7,8,9-hexahydro-[1,4]dioxino[2,3-g]isoquinoline-8-carbonyl}-amino)-3-[4-(2,3-dimethyl-pyridin-4-yl)-phenyl]-propionic acid], the EC50 was 75 nM. With `Cc1nc(C(=O)N2Cc3cc4c(cc3C[C@H]2C(=O)N[C@@H](Cc2ccc(-c3ccnc(C)c3C)cc2)C(=O)O)OC[C@H](c2ccc(OCC3CCC(F)(F)CC3)cc2)O4)c(C)o1` [Example 223, (S)-2-{[(3S,8S)-3-[4-(4,4-Difluoro-cyclohexylmethoxy)-phenyl]-7-(2,5-dimethyl-oxazole-4-carbonyl)-2,3,6,7,8,9-hexahydro-[1,4]dioxino[2,3-g]isoquinoline-8-carbonyl]-amino}-3-[4-(2,3-dimethyl-pyridin-4-yl)-phenyl]propionic acid] the EC50 was 176 nM. With `Cc1nc(C(=O)N2Cc3cc4c(cc3C[C@H]2C(=O)N[C@@H](Cc2ccc(-c3ccnc(C)c3C)cc2)C(=O)O)OC[C@H](c2ccc(OCC3CCC(C(F)(F)F)CC3)cc2)O4)c(C)o1` (stereo partly drawn) [Example 225, (S)-2-({(3S,8S)-7-(2,5-Dimethyl-oxazole-4-carbonyl)-3-[4-(4-trifluoromethyl-cyclohexylmethoxy)-phenyl]-2,3,6,7,8,9-hexahydro-[1,4]dioxino[2,3-g]isoquinoline-8-carbonyl}-amino)-3-[4-(2,3-dimethyl-pyridin-4-yl)-phenyl]-propionic acid] the EC50 was 183 nM. `Cc1nccc(-c2ccc(C[C@H](NC(=O)[C@@H]3Cc4cc5c(cc4CN3Cc3ncccc3F)O[C@@H](c3ccc(OCc4ccc(Cl)c(Cl)c4)cc3)CO5)C(=O)O)cc2)c1C` [Example 228, (S)-2-{[(3S,8S)-3-[4-(3,4-Dichloro-benzyloxy)-phenyl]-7-(3-fluoro-pyridin-2-ylmethyl)-2,3,6,7,8,9-hexahydro-[1,4]dioxino[2,3-g]isoquinoline-8-carbonyl]-amino}-3-[4-(2,3-dimethyl-pyridin-4-yl)-phenyl]-propionic acid] showed an EC50 of 22 nM. For `COc1cccc(CN2Cc3cc4c(cc3C[C@H]2C(=O)N[C@@H](Cc2ccc(-c3ccnc(C)c3C)cc2)C(=O)O)OC[C@H](c2ccc(OCc3ccc(Cl)c(Cl)c3)cc2)O4)n1` [Example 229, (S)-2-{[(3S,8S)-3-[4-(3,4-Dichloro-benzyloxy)-phenyl]-7-(6-methoxy-pyridin-2-ylmethyl)-2,3,6,7,8,9-hexahydro-[1,4]dioxino[2,3-g]isoquinoline-8-carbonyl]-amino}-3-[4-(2,3-dimethyl-pyridin-4-yl)phenyl]-propionic acid], the EC50 was 76 nM. In the case of `Cc1nccc(-c2ccc(C[C@H](NC(=O)[C@@H]3Cc4cc5c(cc4CN3Cc3nccn3C)O[C@@H](c3ccc(OCc4ccc(Cl)c(Cl)c4)cc3)CO5)C(=O)O)cc2)c1C` [Example 230, (S)-2-{[(3S,8S)-3-[4-(3,4-Dichloro-benzyloxy)-phenyl]-7-(1-methyl-1H-imidazol-2-ylmethyl)-2,3,6,7,8,9-hexahydro-[1,4]dioxino[2,3-g]isoquinoline-8-carbonyl]-amino}-3-[4-(2,3-dimethyl-pyridin-4-yl)phenyl]-propionic acid], the EC50 is reported as 18 nM. For `Cc1nccc(-c2ccc(C[C@H](NC(=O)[C@@H]3Cc4cc5c(cc4CN3Cc3nccs3)O[C@@H](c3ccc(OCc4ccc(Cl)c(Cl)c4)cc3)CO5)C(=O)O)cc2)c1C` [Example 231, (S)-2-({(3S,8S)-3-[4-(3,4-Dichloro-benzyloxy)-phenyl]-7-thiazol-2-ylmethyl-2,3,6,7,8,9-hexahydro-[1,4]dioxino[2,3-g]isoquinoline-8-carbonyl}-amino)-3-[4-(2,3-dimethyl-pyridin-4-yl)-phenyl]-propionic acid], the EC50 was 39 nM. For `Cc1nc(CN2Cc3cc4c(cc3C[C@H]2C(=O)N[C@@H](Cc2ccc(-c3ccnc(C)c3C)cc2)C(=O)O)OC[C@H](c2ccc(OCc3ccc(Cl)c(Cl)c3)cc2)O4)c(C)o1` [Example 232, (S)-2-{[(3S,8S)-3-[4-(3,4-Dichloro-benzyloxy)-phenyl]-7-(2,5-dimethyl-oxazol-4-ylmethyl)-2,3,6,7,8,9-hexahydro-[1,4]dioxino[2,3-g]isoquinoline-8-carbonyl]-amino}-3-[4-(2,3-dimethyl-pyridin-4-yl)-phenyl]-propionic acid], the EC50 was 133 nM. `Cc1nccc(-c2ccc(C[C@H](NC(=O)[C@@H]3Cc4cc5c(cc4CN3C(=O)c3ccccn3)O[C@@H](c3ccc(OCc4ccc(Cl)c(Cl)c4)cc3)CO5)C(=O)O)cc2)c1C` [Example 236, (S)-2-{[(3S,8S)-3-[4-(3,4-Dichloro-benzyloxy)-phenyl]-7-(pyridine-2-carbonyl)-2,3,6,7,8,9-hexahydro-[1,4]dioxino[2,3-g]isoquinoline-8-carbonyl]-amino}-3-[4-(2,3-dimethyl-pyridin-4-yl)-phenyl]-propionic acid] was tested, and the EC50 was 56 nM. Work on `Cc1ncoc1C(=O)N1Cc2cc3c(cc2C[C@H]1C(=O)N[C@@H](Cc1ccc(-c2ccnc(C)c2C)cc1)C(=O)O)OC[C@H](c1ccc(OCc2ccc(Cl)c(Cl)c2)cc1)O3` [Example 238, (S)-2-{[(3S,8S)-3-[4-(3,4-Dichloro-benzyloxy)-phenyl]-7-(4-methyl-oxazole-5-carbonyl)-2,3,6,7,8,9-hexahydro-[1,4]dioxino[2,3-g]isoquinoline-8-carbonyl]-amino}-3-[4-(2,3-dimethyl-pyridin-4-yl)-phenyl]-propionic acid] yielded an EC50 of 146 nM. For `Cc1nccc(-c2ccc(C[C@H](NC(=O)[C@@H]3Cc4cc5c(cc4CN3C(=O)N[C@@H](C)c3ccccc3)O[C@@H](c3ccc(OCc4ccc(Cl)c(Cl)c4)cc3)CO5)C(=O)O)cc2)c1C` [Example 239, (S)-2-{[(3S,8S)-3-[4-(3,4-Dichloro-benzyloxy)-phenyl]-7-((S)-1-phenyl-ethylcarbamoyl)-2,3,6,7,8,9-hexahydro-[1,4]dioxino[2,3-g]isoquinoline-8-carbonyl]-amino}-3-[4-(2,3-dimethyl-pyridin-4-yl)-phenyl]-propionic acid], the EC50 was 82 nM. With `Cc1nccc(-c2ccc(C[C@H](NC(=O)[C@@H]3Cc4cc5c(cc4CN3C(=O)N[C@H](C)c3ccccc3)O[C@@H](c3ccc(OCc4ccc(Cl)c(Cl)c4)cc3)CO5)C(=O)O)cc2)c1C` [Example 240, (S)-2-{[(3S,8S)-3-[4-(3,4-Dichloro-benzyloxy)-phenyl]-7-((R)-1-phenyl-ethylcarbamoyl)-2,3,6,7,8,9-hexahydro-[1,4]dioxino[2,3-g]isoquinoline-8-carbonyl]-amino}-3-[4-(2,3-dimethyl-pyridin-4-yl)-phenyl]-propionic acid] the EC50 was 56 nM. In the case of `Cc1ccc(NC(=O)N2Cc3cc4c(cc3C[C@H]2C(=O)N[C@@H](Cc2ccc(-c3ccnc(C)c3C)cc2)C(=O)O)OC[C@H](c2ccc(OCc3ccc(Cl)c(Cl)c3)cc2)O4)cc1` [Example 243, (S)-2-({(3S,8S)-3-[4-(3,4-Dichloro-benzyloxy)-phenyl]-7-p-tolylcarbamoyl-2,3,6,7,8,9-hexahydro-[1,4]dioxino[2,3-g]isoquinoline-8-carbonyl}-amino)-3-[4-(2,3-dimethyl-pyridin-4-yl)-phenyl]-propionic acid], the EC50 is reported as 92 nM. `CC[C@H](NC(=O)N1Cc2cc3c(cc2C[C@H]1C(=O)N[C@@H](Cc1ccc(-c2ccnc(C)c2C)cc1)C(=O)O)OC[C@H](c1ccc(OCc2ccc(Cl)c(Cl)c2)cc1)O3)c1ccccc1` [Example 245, (S)-2-{[(3S,8S)-3-[4-(3,4-Dichloro-benzyloxy)-phenyl]-7-((S)-1-phenyl-propylcarbamoyl)-2,3,6,7,8,9-hexahydro-[1,4]dioxino[2,3-g]isoquinoline-8-carbonyl]-amino}-3-[4-(2,3-dimethyl-pyridin-4-yl)-phenyl]-propionic acid] showed an EC50 of 203 nM. `Cc1nccc(-c2ccc(C[C@H](NC(=O)[C@@H]3Cc4cc5c(cc4CN3C(=O)N[C@H](C)c3ccc(F)cc3)O[C@@H](c3ccc(OCc4ccc(Cl)c(Cl)c4)cc3)CO5)C(=O)O)cc2)c1C` [Example 247, (S)-2-({(3S,8S)-3-[4-(3,4-Dichloro-benzyloxy)-phenyl]-7-[(R)-1-(4-fluoro-phenyl)-ethylcarbamoyl]-2,3,6,7,8,9-hexahydro-[1,4]dioxino[2,3-g]isoquinoline-8-carbonyl}-amino)-3-[4-(2,3-dimethyl-pyridin-4-yl)-phenyl]-propionic acid] gave an EC50 of 175 nM.

From patent US9175003B2, “Substituted azoanthracene derivatives and intermediates for preparation thereof” (TransTech Pharma, LLC, priority 2009, dated 2015)
